Drawing on patent US12358886B2, “Heterocyclic compounds for use in the treatment of cancer” (Artios Pharma Limited, priority 2019, dated 2025), this text covers IC50 for 20 molecules.

The structures appear in SMILES notation.

For this assay, the target named is Polθ protein (amino acids 2-2590) (Homo sapiens, UniProt O75417). As to the kind of experiment: Polθ full length enzyme potency assay (PicoGreen). The settings on record: Polθ IC50 (nM), full length N-His, C-term FLAG tagged Polθ, PicoGreen fluorescence, 12 point concentration response.
Chain of Polθ protein (amino acids 2-2590) (O75417 2-2590): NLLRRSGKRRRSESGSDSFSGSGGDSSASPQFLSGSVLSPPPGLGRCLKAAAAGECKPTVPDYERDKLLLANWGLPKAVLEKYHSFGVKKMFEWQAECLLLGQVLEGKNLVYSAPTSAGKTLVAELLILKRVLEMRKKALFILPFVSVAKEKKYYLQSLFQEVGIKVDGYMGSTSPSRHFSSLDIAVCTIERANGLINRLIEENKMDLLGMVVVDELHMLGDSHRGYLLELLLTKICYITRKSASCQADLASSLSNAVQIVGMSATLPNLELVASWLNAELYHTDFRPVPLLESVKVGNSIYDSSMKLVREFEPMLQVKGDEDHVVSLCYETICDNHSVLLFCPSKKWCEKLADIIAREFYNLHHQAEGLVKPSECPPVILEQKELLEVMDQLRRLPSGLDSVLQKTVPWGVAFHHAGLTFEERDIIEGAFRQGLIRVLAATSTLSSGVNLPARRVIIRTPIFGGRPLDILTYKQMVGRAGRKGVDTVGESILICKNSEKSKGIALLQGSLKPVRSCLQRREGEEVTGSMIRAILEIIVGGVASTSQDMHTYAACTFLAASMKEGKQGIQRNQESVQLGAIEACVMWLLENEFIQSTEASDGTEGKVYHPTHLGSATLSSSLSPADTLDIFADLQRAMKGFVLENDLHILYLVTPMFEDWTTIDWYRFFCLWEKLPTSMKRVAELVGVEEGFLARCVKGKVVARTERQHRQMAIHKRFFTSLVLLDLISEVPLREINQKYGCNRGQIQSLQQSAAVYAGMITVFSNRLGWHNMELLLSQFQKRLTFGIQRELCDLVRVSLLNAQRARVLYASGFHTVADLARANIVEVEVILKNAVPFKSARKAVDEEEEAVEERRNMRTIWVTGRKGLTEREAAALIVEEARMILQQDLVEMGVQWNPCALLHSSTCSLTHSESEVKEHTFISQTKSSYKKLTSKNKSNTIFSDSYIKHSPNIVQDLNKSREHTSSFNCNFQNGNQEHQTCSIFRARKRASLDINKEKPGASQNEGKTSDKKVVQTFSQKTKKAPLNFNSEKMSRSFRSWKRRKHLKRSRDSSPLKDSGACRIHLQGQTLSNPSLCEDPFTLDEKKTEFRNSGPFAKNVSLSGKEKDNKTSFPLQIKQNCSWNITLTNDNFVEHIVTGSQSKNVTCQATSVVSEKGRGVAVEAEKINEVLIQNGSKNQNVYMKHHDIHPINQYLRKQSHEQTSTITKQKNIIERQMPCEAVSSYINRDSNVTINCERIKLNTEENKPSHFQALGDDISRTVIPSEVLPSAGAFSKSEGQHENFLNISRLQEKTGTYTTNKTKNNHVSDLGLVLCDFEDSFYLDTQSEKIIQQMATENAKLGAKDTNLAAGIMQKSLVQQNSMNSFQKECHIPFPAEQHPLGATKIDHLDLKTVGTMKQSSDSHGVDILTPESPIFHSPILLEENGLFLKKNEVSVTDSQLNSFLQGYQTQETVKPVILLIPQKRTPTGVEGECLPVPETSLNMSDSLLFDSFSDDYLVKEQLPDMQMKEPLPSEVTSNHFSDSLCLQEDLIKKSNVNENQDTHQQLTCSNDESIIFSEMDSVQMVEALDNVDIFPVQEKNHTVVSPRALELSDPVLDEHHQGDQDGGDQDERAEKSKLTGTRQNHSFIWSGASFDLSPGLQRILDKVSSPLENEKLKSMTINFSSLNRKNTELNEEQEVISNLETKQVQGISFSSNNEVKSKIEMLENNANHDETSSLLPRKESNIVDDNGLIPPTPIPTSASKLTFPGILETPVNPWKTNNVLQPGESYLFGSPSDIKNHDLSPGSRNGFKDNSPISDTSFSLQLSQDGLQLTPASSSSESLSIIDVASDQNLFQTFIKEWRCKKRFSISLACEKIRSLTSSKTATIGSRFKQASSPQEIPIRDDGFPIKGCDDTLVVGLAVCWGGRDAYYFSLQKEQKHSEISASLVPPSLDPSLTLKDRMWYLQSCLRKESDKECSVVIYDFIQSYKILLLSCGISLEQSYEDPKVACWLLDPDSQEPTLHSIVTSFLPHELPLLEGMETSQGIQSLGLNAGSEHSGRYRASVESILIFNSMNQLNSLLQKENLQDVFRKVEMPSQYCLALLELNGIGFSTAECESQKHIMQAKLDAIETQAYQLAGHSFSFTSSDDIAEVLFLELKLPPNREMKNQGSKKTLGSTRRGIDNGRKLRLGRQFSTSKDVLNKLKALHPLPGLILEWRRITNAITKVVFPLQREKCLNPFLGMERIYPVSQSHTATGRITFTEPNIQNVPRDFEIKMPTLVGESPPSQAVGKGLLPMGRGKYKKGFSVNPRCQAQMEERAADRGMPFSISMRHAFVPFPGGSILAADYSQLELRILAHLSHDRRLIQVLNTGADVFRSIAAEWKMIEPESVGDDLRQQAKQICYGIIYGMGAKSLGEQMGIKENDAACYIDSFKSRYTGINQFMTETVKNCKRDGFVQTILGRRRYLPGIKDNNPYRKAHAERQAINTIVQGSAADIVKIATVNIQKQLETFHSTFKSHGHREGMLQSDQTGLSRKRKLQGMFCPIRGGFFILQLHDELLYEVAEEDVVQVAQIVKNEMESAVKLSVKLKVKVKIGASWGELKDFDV
In turn, `CCN(C(=O)[C@@H]1C[C@H](N2CCOC[C@H]2CO)CN1c1nc(C)cc(C(F)(F)F)c1C#N)c1ccc(F)c(Cl)c1` [Example 153, (2S,4S)-N-(3-Chloro-4-fluorophenyl)-1-(3-cyano-6-methyl-4-(trifluoromethyl)pyridin-2-yl)-N-ethyl-4-((R)-3-(hydroxymethyl)morpholino)pyrrolidine-2-carboxamide] registered an IC50 of 104 nM.
Then `Cc1cc(C(F)(F)F)cc(N2C(=O)C[C@@H](O)[C@H]2C(=O)N(C)c2ccc(F)c(Cl)c2)n1` [Example 80, (2S,3R)—N-(3-Chloro-4-fluorophenyl)-3-hydroxy-N-methyl-1-(6-methyl-4-(trifluoromethyl)-pyridin-2-yl)-5-oxopyrrolidine-2-carboxamide], with 6 nM; and `Cc1cc(C(F)(F)F)cc(N2C(=O)OC[C@H]2C(=O)N(C)c2ccc3c(c2)COC3)n1` [Example 102, (S)-N-(1,3-Dihydroisobenzofuran-5-yl)-N-methyl-3-(6-methyl-4-(trifluoromethyl)pyridin-2-yl)-2-oxooxazolidine-4-carboxamide], with 86 nM.
Then `CC(=O)N(C)C1CCN(CCN2C[C@@H](C(=O)N(C)c3ccc(F)c(Cl)c3F)N(c3cc(C(F)(F)F)cc(C)n3)C2=O)C1` (stereo partly drawn) [Example 207, (4S)-N-(3-Chloro-2,4-difluoro-phenyl)-N-methyl-3-(6-methyl-4-(trifluoromethyl)pyridin-2-yl)-1-(2-(3-(N-methylacetamido)-pyrrolidin-1-yl)ethyl)-2-oxoimidazolidine-4-carboxamide], with 7 nM; and `CCN(C(=O)[C@@H]1C[C@H](NC2COC2)CN1c1cc(C(F)(F)F)cc(C)n1)c1ccc(F)c(F)c1` [Example 138, (2S,4S)-N-(3,4-Difluorophenyl)-N-ethyl-1-(6-methyl-4-(trifluoromethyl)pyridin-2-yl)-4-(oxetan-3-ylamino)pyrrolidine-2-carboxamide], with 165 nM; and `Cc1cc(C(F)(F)F)cc(N2C(=O)[C@@H](CO)C[C@H]2C(=O)N(C)c2ccc(F)c(Cl)c2)n1` [Example 77, (2S,4R)—N-(3-Chloro-4-fluorophenyl)-4-(hydroxymethyl)-N-methyl-1-(6-methyl-4-(trifluoromethyl)pyridin-2-yl)-5-oxopyrrolidine-2-carboxamide], with 11 nM.
The result for `CNC(=O)CCN1C[C@@H](C(=O)N(C)c2ccc(F)c(Cl)c2)N(c2cc(C(F)(F)F)cc(C)n2)C1=O` [Example 191, (S)—N-(3-Chloro-4-fluorophenyl)-N-methyl-3-(6-methyl-4-(trifluoromethyl)pyridin-2-yl)-1-(3-(methylamino)-3-oxopropyl)-2-oxoimidazolidine-4-carboxamide] reads 12 nM; that for `CCN(C)c1cc(C(F)(F)F)c(C#N)c(N2C[C@@H](O)C[C@H]2C(=O)N(C)c2cccc(C)c2)n1` [Example 31, (2S,4S)-1-(3-Cyano-6-(ethyl(methyl)amino)-4-(trifluoromethyl)pyridin-2-yl)-4-hydroxy-N-methyl-N-(m-tolyl)pyrrolidine-2-carboxamide], 395 nM; that for `Cc1cc(C(F)(F)F)c(C#N)c(N2C[C@@H](O)C[C@H]2C(=O)N(C)c2cc(F)cc(F)c2)n1` [Example 17, (2S,4S)-1-(3-Cyano-6-methyl-4-(trifluoromethyl)pyridin-2-yl)-N-(3,5-difluorophenyl)-4-hydroxy-N-methylpyrrolidine-2-carboxamide], 97 nM.
Molecule `[2H]C([2H])([2H])N(C(=O)[C@@H]1[C@H](O)[C@H](O)C(=O)N1c1cc(C(F)(F)F)cc(C)n1)c1ccc(F)c(Cl)c1` [Example 163, (2S,3S,4S)—N-(3-Chloro-4-fluorophenyl)-3,4-dihydroxy-N-(methyl-d3)-1-(6-methyl-4-(trifluoromethyl)pyridin-2-yl)-5-oxopyrrolidine-2-carboxamide] yielded an IC50 of 11 nM.
Then `CCN(C(=O)[C@@H]1C[C@H](N(C)CCS(C)(=O)=O)CN1c1nc(C)cc(C)c1C#N)c1cccc(C)c1` [Example 46, (2S,4S)-1-(3-Cyano-4,6-dimethylpyridin-2-yl)-N-ethyl-4-(methyl(2-(methylsulfonyl)-ethyl)amino)-N-(m-tolyl)-pyrrolidine-2-carboxamide], with 227 nM; and `Cc1cc(C(F)(F)F)c(C#N)c(N2C[C@@H](O)C[C@H]2C(=O)N(C)c2ccc(F)c(C)c2)n1` [Example 6, (2S,4S)-1-(3-Cyano-6-methyl-4-(trifluoromethyl)pyridin-2-yl)-N-(4-fluoro-3-methylphenyl)-4-hydroxy-N-methylpyrrolidine-2-carboxamide], with 11 nM; and `Cc1cc(C(F)(F)F)cc(N2C(=O)N(CC3CN(C)C(=O)O3)C[C@H]2C(=O)N(C)c2ccc(F)c(Cl)c2F)n1` (single isomer, unassigned; isomer 2) [Example 230], with 16 nM.
The result for `Cc1cc(C(C)C)cc(N2C(=O)OC[C@H]2C(=O)N(C)c2ccc(F)c(Cl)c2)n1` [Example 118, (S)—N-(3-Chloro-4-fluorophenyl)-3-(4-isopropyl-6-methylpyridin-2-yl)-N-methyl-2-oxooxazolidine-4-carboxamide] reads 25 nM; that for `Cc1cc(C(F)(F)F)cc(N2C(=O)[C@H](O)[C@H](O)[C@H]2C(=O)N(C)c2ccc(F)c(Cl)c2F)n1` [Example 71, (2S,3R,4R)—N-(3-Chloro-2,4-difluorophenyl)-3,4-dihydroxy-N-methyl-1-(6-methyl-4-(trifluoromethyl)pyridin-2-yl)-5-oxopyrrolidine-2-carboxamide], 10 nM.
Regarding `Cc1cc(C(F)(F)F)cc(N2C(=O)[C@@H](O)[C@@H](O)[C@H]2C(=O)N(C)c2cc(F)cc(Cl)c2)n1` [Example 68, (2S,3S,4S)-N-(3-Chloro-5-fluoro-phenyl)-3,4-dihydroxy-N-methyl-1-(6-methyl-4-(trifluoromethyl)pyridin-2-yl)-5-oxopyrrolidine-2-carboxamide], half-maximal inhibition (IC50) required 31 nM.
The molecule `CCc1cc(C)nc(N2C(=O)OC[C@H]2C(=O)N(C)c2ccc(F)c(Cl)c2)c1` [Example 119, (S)—N-(3-Chloro-4-fluorophenyl)-3-(4-ethyl-6-methylpyridin-2-yl)-N-methyl-2-oxooxazolidine-4-carboxamide] yielded an IC50 of 39 nM.
The result for `Cc1cccc(N(C)C(=O)[C@@H]2C[C@H](O)CN2c2nc(C)cc(C(C)C)c2C#N)c1` [Example 33, (2S,4S)-1-(3-Cyano-4-isopropyl-6-methylpyridin-2-yl)-4-hydroxy-N-methyl-N-(m-tolyl)pyrrolidine-2-carboxamide] reads 30 nM.
The result for `Cc1cc(C(F)(F)F)cc(N2C(=O)NC[C@H]2C(=O)N(C)c2ccc(F)c(Cl)c2F)n1` [Example 158, (S)—N-(3-Chloro-2,4-difluorophenyl)-N-methyl-3-(6-methyl-4-(trifluoromethyl)pyridin-2-yl)-2-oxoimidazolidine-4-carboxamide] reads 2 nM; that for `COc1cc(N(C)C(=O)[C@@H]2COC(=O)N2c2cc(C(F)(F)F)cc(C)n2)ccc1F` [Example 90, (S)-N-(4-Fluoro-3-methoxyphenyl)-N-methyl-3-(6-methyl-4-(trifluoromethyl)pyridin-2-yl)-2-oxooxazolidine-4-carboxamide], 226 nM.

What is called IC50 is the point on the concentration scale where inhibition reaches its midpoint.
